Values quoted from earlier work, collected in US20090047371A1, “PHARMACEUTICAL COMPOSITION COMPRISING CURCUMIN AND RESVERATROL AND USES THEREOF IN MEDICAL FIELD” (SAFI INVESTMENT HOLDING AG, priority 2005, published 2009).

Test system: hair loss
Conditions: many cases in India and in Europe where Curcumin has been employed

COc1cc(/C=C/C(=O)CC(=O)/C=C/c2ccc(O)c(OC)c2)ccc1O [Curcumin, curcumin]
effect on hair: any effect on hair has never been reported
